Like-named read-outs stand apart in the source and are kept apart here.
Key:
[1] = tested on: L. infantum amastigotes in PeMs; assay: microbe, parasite or virus in culture; conditions: for number of intracellular amastigotes / parasites in infected PeMs: glucantime 346.19 µM, Amphotericin B 10.55 µM
Method: After initial cultivation, non-adherent cells were removed by washing with fresh RPMI medium. Subsequently, PeMs were infected with stationary promastigote forms of L. infantum at 1:20 PeM/promastigotes ratio. […] After incubation time, the samples were washed in PBS, fixed with methanol, and stained with Giemsa. The percentage of infected macrophages was determined by counting 150 randomly chosen cells in duplicate, and the survival index (SuI) was calculated by multiplying the percentage of infected cells by the mean of amastigotes in infected cells. […] The tests were carried out in duplicate in three independent experiments.

[2] = tested on: L. infantum amastigotes in PeMs; parameters: method as in PMID 18660990, PMID 23070424; conditions: concentration used as positive control; read-out: IC50 of reference drugs; cited from earlier work
[3] = Cytotoxicity assay (MTT) in fibroblasts; format: cell-based; conditions: mouse, 48 h of treatment, MTT, tested 6.25–200 µM
Method: (§1) The cytotoxic potential of Ox1–Ox7 was first evaluated in fibroblasts (L929) and macrophages (J774.G8). For this, 5 × 10^5 cells/mL were seeded in 96-well microplates containing 100 μL of DMEM or RPMI-1640 medium supplemented with 10% fetal bovine serum (FBS) and cultivated for 24 h at 37 °C, under 5% CO2 atmosphere. […] Untreated cells were considered as negative control. The cell viability was measured by spectrometry after 48 h of cultivation using MTT (Sigma-Aldrich, St. Louis, MO, USA) methodology described by Mosmann. The optical densities (OD) of the samples were read in a Glomax Multiplate reader (Promega, Madison, WI, USA) at 540 nm. Each assay was performed in triplicate in three independent experiments. […] The selectivity index (SI) for each compound was calculated as the ratio between the CC50 values obtained for J774.G8 macrophages and fibroblast and the IC50 values for promastigotes. The compound with a higher value of SI was selected for cytotoxicity evaluation in macrophages obtained from BALB/c mice peritoneal exudate (PeM), following the methodology described above.

fibroblasts (L929) = assay: Cytotoxicity assay (MTT) in fibroblasts; format: cell-based; conditions: 200 µM, 48 h
Method: as §1

[4] = Cytotoxicity assay (MTT) in macrophages; format: cell-based; conditions: mouse, 48 h of treatment, MTT, tested 6.25–200 µM
Method: as §1

macrophages (J774.G8) = assay: Cytotoxicity assay (MTT) in macrophages; format: cell-based; conditions: 200 µM, 48 h
Method: as §1

[5] = tested on: L. infantum promastigotes; assay: Promastigote viability (CellTiter-Glo ATP); format: cell-based, L. infantum (BH46 strain); conditions: for IC50: Leishmania infantum, read-out: IC50 Pro; for SI Pro/J774.G8: ratio CC50 (J774.G8)/IC50 (promastigotes); for SI Pro/L929: ratio CC50 (L929)/IC50 (promastigotes); for SI (promastigotes vs fibroblasts and J774.G8 macrophages): stated as bound
Method: Promastigote forms of L. infantum (BH46 strain) were cultivated at 27 °C in Schneider’s medium, supplemented with 10% (v/v) heat-inactivated fetal bovine serum (FBS, Gibco, Waltham, MA, USA), 100 U/mL penicillin, and 0.01 mg/mL streptomycin. Parasites in the log phase were used in the test of drugs against promastigotes, whereas those obtained in the stationary phase were used to infect peritoneal macrophages. […] The viability of promastigotes was assessed through ATP production using the CellTiter-Glo® Luminescent Cell Viability assay (Promega, Madison, WI, USA), in accordance with the manufacturer’s instructions.

[6] = Cytotoxicity assay (MTT) in peritoneal macrophages; format: cell-based, BALB/c mice; conditions: BALB/c, mouse, peritoneal macrophages (PeM); peritoneal macrophages, estimated; read-out: CC50 for PeMs
Method: as §1

[7] = tested on: peritoneal macrophages from BALB/c mice (PeM); assay: Cytotoxicity assay (MTT) in peritoneal macrophages; format: cell-based
Method: as §1

[8] = tested on: L. infantum promastigotes; assay: Scanning electron microscopy of promastigotes (rounded cells count); format: cell-based; conditions: 48 h, control 5%
Method: To identify alterations in the morphology of promastigotes and amastigotes, scanning (SEM) and transmission (TEM) electron microscopy assays were performed. For SEM, L. infantum promastigotes were treated with once or twice the IC50 concentration of Ox1 for 48 h. Subsequently, the parasites were harvested by centrifugation, washed with 100 mM PBS, pH 7.2, fixed at room temperature, for 1 h in 2.5% glutaraldehyde solution diluted in 0.1 M cacodylate buffer, pH 7.2. Cells were adhered to coverslips pre-coated with poly-L-lysine, post-fixed for 1 h with a solution containing 1% osmium tetroxide, 0.8% potassium ferricyanide, and 5 mM calcium chloride diluted in 0.1 M cacodylate buffer, pH 7.2, in light-protected environment. Then, the cells were dehydrated in graded ethanol series (15–100%) for 10 min at room temperature. Samples were critical-point dried in a LEICA EM CPD300 apparatus (Leica Microsystems, Wetzlar, Hessen, DE, Germany) and then coated with 20 nm gold and observed in a JEOL T-200 scanning electron microscope (JEOL Ltd., Tokyo, Japan). For MET, promastigotes and infected PeMs were treated or not with once or twice IC50 concentration of Ox1, fixed and post-fixed, as described above. For infected–adhered peritoneal macrophages, after the post-fixation, the cells were scraped off the culture dishes with a rubber policeman. […]

[9] = tested on: L. infantum promastigotes; assay: Mitochondrial membrane potential, Rhodamine 123 flow cytometry; format: cell-based
Method: Afterward, the cells were centrifuged and stained with Rhodamine 123 (10 µg/mL, molecular probes, Invitrogen™, Waltham, MA, USA) in PBS for 15 min at 27 °C, in the dark. […] The changes in the fluorescence intensity for fluorochrome were determined by the variation index calculated as follows: (MT − MC)/MC where MT is the mean fluorescence intensity of treated cells and MC is the mean of fluorescence of control cells without treatment. A total of 20,000 events were acquired, and the data were analyzed with FLOWJO software version 10.2.

[10] = 24 h, Ox1 8.24, 16.49, 32.98 µM
[11] = promastigotes, 48 h of treatment

Row | Molecule | number of intracellular amastigotes / parasites in infected PeMs [1, 10] | CC50 at 48 h ([3]; L929 fibroblasts) [µM] | CC50 at 48 h ([4]; J774.G8 macrophages) [µM] | IC50 [5, 11] [µM] | SI Pro/J774.G8 [5] | SI Pro/L929 [5] | melting point [°C] | SI (promastigotes vs fibroblasts and J774.G8 macrophages) [5] | other results
1 | C[C@@H]1[C@H](O)[C@@H](C)/C=C/C=C/C=C/C=C/C=C/C=C/C=C/[C@H](O[C@@H]2O[C@H](C)[C@@H](O)[C@H](N)[C@@H]2O)C[C@@H]2O[C@](O)(C[C@@H](O)C[C@@H](O)[C@H](O)CC[C@@H](O)C[C@@H](O)CC(=O)O[C@H]1C)C[C@H](O)[C@H]2C(=O)O [Amphotericin B, reference compound] | reduced the number of intracellular amastigotes |  |  |  |  |  |  |  | IC50 [2]: 10.6 µM
2 | COc1ccc(-c2noc(NC3CCCCC3)n2)cc1 [Ox1, N-Cyclohexyl-3-(4-methoxyphenyl)-1,2,4-oxadiazol-5-amine] | significantly decreased | > 200 | > 200 | 32.9 ± 2.2 | 8.9 | 9.7 | 109 to 110 |  | reduction of cell viability, fibroblasts (fibroblasts (L929)): 20%; reduction of cell viability, macrophages J774.G8 (macrophages (J774.G8)): 26%; reduction in promastigote viability ([5]; 25 µM, 48 h): 32%; reduction of growth of parasites ([5]; 50 µM, 24 h): 66%; promastigote viability inhibition ([5]; 200 µM, regardless of the cultivation time (24 and 48 h)): exceeded 90%; SI against promastigotes compared to peritoneal macrophages ([5]; CC50 PeM/IC50 promastigotes): 18.7; increase in activity compared to compound Ox3 ([5]; promastigote IC50 comparison): about 10 times; CC50 at 48 h [6]: 617 µM; reduction of viability of PeMs ([7]; 400 µM, compared to control cells): 13%; viability of macrophages (PeM) ([7]; 6.25 to 200 µM): significantly increased; survival index (SuI) of amastigotes inside the macrophages [1, 10]: significantly decreased; SI against amastigotes ([1]; CC50 for PeM/IC50 of amastigote forms): 61.7; IC50 ([1]; Leishmania infantum, Peritoneal macrophage, 24 h, read-out: IC50 for amastigote forms in PeMs): 10 µM; percentage of rounding cells ([8]; IC50 (32.98 µM)): 7%; percentage of rounding cells ([8]; twice the IC50 (65.96 µM)): 30%; variation index of membrane potential (Rhodamine 123) ([9]; 2× IC50 of Ox1, 48 h): −0.32; variation index of membrane potential (Rhodamine 123) ([9]; IC50 of Ox1, 48 h): +0.28; membrane potential (Rhodamine 123 fluorescence) vs control ([9]; ½ IC50 of Ox1, 48 h): No difference
3 | O=[N+]([O-])c1cccc(-c2noc(NC3CCCCC3)n2)c1 [Ox2, N-Cyclohexyl-3-(3-nitrophenyl)-1,2,4-oxadiazol-5-amine] |  | > 200 | > 200 | 220 ± 3.6 |  | 1.7 | 131 to 133 | lower than 5.0 | 
4 | O=[N+]([O-])c1ccc(-c2noc(NC3CCCCC3)n2)cc1 [Ox3, N-Cyclohexyl-3-(4-nitrophenyl)-1,2,4-oxadiazol-5-amine] |  | > 200 | > 200 | 336 ± 12.1 |  | 1.1 | 201 to 203 |  | 
5 | Cc1ccc(-c2noc(NC3CCCCC3)n2)cc1 [Ox4, N-Cyclohexyl-3-(4-methylphenyl)-1,2,4-oxadiazol-5-amine] |  |  |  |  |  | 1.7 |  |  | CC50 at 48 h ([3]; read-out: CC50 L929): > 200 µM; CC50 at 48 h ([4]; read-out: CC50 J774.G8): > 200 µM; IC50 ([5]; 48 h): 174 ± 12.3 µM
6 | C#CCN(c1nc(-c2ccccc2)no1)C1CCCCC1 [Ox5, N-Cyclohexyl-3-phenyl-N-(prop-2-yn-1-yl)-1,2,4-oxadiazol-5-amine] |  | > 200 | 160 ± 6.5 | 84.7 ± 3.6 |  | 4.4 | 112 to 114 | lower than 5.0 | 
7 | C#CCN(c1nc(-c2ccc([N+](=O)[O-])cc2)no1)C1CCCCC1 [Ox6, N-Cyclohexyl-3-(4-nitrophenyl)-N-(prop-2-yn-1-yl)-1,2,4-oxadiazol-5-amine] |  | > 200 | > 200 | 92.2 ± 1.9 | 2.5 | 3.7 | 108 to 110 | lower than 5.0 | 
8 | C#CCN(c1nc(-c2cccc([N+](=O)[O-])c2)no1)C1CCCCC1 [Ox7, N-Cyclohexyl-3-(3-nitrophenyl)-N-(prop-2-yn-1-yl)-1,2,4-oxadiazol-5-amine] |  | > 200 | 197 ± 6 | 98.2 ± 1.4 | 2.0 |  | 94 to 96 |  | 
9 | c1ccc(-c2noc(NC3CCCCC3)n2)cc1 [Ox, N-Cyclohexyl-3-(phenyl)-1,2,4-oxadiazol-5-amine] |  |  |  |  |  |  | 125 to 127 |  | 
10 | antimoniate of meglumine [glucantime, reference compound] | reduced the number of intracellular amastigotes |  |  |  |  |  |  |  | IC50 [2]: 346 µM

Reference: article PMC11478322, “1,2,4-Oxadiazole Derivatives: Physicochemical Properties, Antileishmanial Potential, Docking and Molecular Dynamic Simulations of Leishmania infantum Target Proteins” (Molecules, 2024)
